In US20260008758A1, “LINEAR DIPEPTIDYL PEPTIDASE 1 INHIBITORS AND USES THEREOF” (Insmed Incorporated, priority 2024, published 2026):

Columns and labels:
human DPP1 enzyme = human DPP1 enzyme (Homo sapiens (Human), UniProt P53634); test: Human DPP1 enzyme single-point percent inhibition testing (HL-60 lysate, H-Gly-Arg-AMC substrate); type: biochemical; settings: read-out: human DPP1 enzyme % inhibition @ 10 nM, 10 nM compound, 400 μM H-Gly-Arg-AMC, 10 min pre-incubation at 37° C.
Experimental: A crude lysate of HL-60 cells (ATCC; Manassas, VA) was used as a source of human DPP1 enzyme in the assay. Lysate was prepared in 1% Triton X-100 in PBS at a concentration of 20,000 live cells per […] of lysis buffer and was centrifuged at 16,000 rcf for 10 minutes at 4° C., after which supernatant was collected and flash-frozen in liquid nitrogen. Test articles were applied to human DPP1 enzyme in Assay Buffer (25 mM MES pH 6.0, 50 mM NaCl, 5 mM DTT) in a total reaction volume of 125 μL. 25 μL of compound diluted to 50 nM in Assay Buffer plus 5% DMSO was first added to 50 μL of HL-60 lysate diluted to contain a DPP1 enzyme concentration of roughly 1 ng/μL and allowed to pre-incubate for 10 minutes at 37° C. after which 50 μL of 1000 μM H-Gly-Arg-AMC substrate (Bachem; St. Torrance, CA) was added, giving final compound concentration of 10 nM, a final substrate concentration of 400 μM and a final DMSO concentration of 1%. Substrate cleavage was measured for 90 minutes at 37° C., with fluorescence at Excitation/Emission 350/450 nm measured every 5 minutes. DPP1 concentration was interpolated based on its activity relative to a standard curve of activated human recombinant DPP1 enzyme. Percent inhibition at 10 nM was calculated for each test article based on remaining DPP1 activity compared to enzyme activity in wells that received only vehicle control.

DPP1 in HL-60 cells = DPP1 in HL-60 cells (Homo sapiens (Human), UniProt P53634); test: DPP1 cell single-point percent inhibition testing (HL-60 cells, H-Gly-Phe-AFC substrate); type: cell-based; settings: read-out: DPP1 cell % inhibition @ 5 nM, 5 nM compound, 100 μM H-Gly-Phe-AFC, 60 min pre-incubation at 37° C.
Experimental: HL-60 cells (ATCC; Manassas, VA) were maintained in RPMI-1640 supplemented with 20% heat-inactivated FBS and 1× Antibiotic Antimycotic (Cytiva; Marlborough, MA). Media was changed every three to four days and cells were not allowed to exceed 1×10^6 cells per mL. Prior to assay, cells were collected by centrifugation at 500 rcf for 3 minutes, resuspended in RPMI (with no additional supplements) and counted. Cells were diluted in RPMI to a concentration of 5×10^5 live cells per mL and transferred to black 96-well plates for assay, 60 μL per well. Test articles were diluted to 25 nM in RPMI plus 0.5% DMSO, and 20 μL was added to each assay well. Compound was allowed to pre-incubate with cells with gentle shaking at 100 rpm for 60 minutes at 37° C. in a cell culture incubator maintained at 5% CO2, after which 20 μL of 500 μM H-Gly-Phe-AFC cell-permeable substrate (MP Biomedicals; Solon, OH) in RPMI was added to each well, giving final compound concentration of 5 nM, a final substrate concentration of 100 μM and a final DMSO concentration of 0.1%. Plates were returned to the incubator with shaking at 100 rpm for 30 minutes, after which fluorescence was measured at Excitation/Emission 400/505 nm. Percent Inhibition was calculated from RFU values by first subtracting background values (wells in which RPMI was substituted for cells) from each well, and then subtracting background-subtracted RFU derived from wells that received a final concentration of 10 μM brensocatib. This value represents the non-specific substrate cleavage from the HL-60 cells, and the remaining RFU should theoretically be solely the contribution of DPP1 enzyme activity. The final percent inhibition value was calculated for each test article based on remaining RFU compared to RFU from wells that received only vehicle control.

Sequence of DPP1 in HL-60 cells (P53634 25-134): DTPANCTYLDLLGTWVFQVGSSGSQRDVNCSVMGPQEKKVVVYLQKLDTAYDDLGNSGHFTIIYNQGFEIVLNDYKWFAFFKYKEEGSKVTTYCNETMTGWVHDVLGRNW
Sequence of DPP1 in HL-60 cells (P53634 231-394): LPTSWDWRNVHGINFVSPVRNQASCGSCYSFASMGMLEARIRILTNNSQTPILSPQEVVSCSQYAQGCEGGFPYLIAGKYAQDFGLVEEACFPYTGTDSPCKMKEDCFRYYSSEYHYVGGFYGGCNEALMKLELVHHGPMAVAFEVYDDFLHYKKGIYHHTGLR
Sequence of DPP1 in HL-60 cells (P53634 395-463): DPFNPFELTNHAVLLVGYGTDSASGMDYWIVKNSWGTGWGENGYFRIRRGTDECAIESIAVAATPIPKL
Sequence of human DPP1 enzyme (P53634 25-134): as the sequence (P53634 25-134) above
Sequence of human DPP1 enzyme (P53634 231-394): as the sequence (P53634 231-394) above
Sequence of human DPP1 enzyme (P53634 395-463): as the sequence (P53634 395-463) above

Structure (SMILES) | inhibition at 0.01 µM (human DPP1 enzyme) [%] | inhibition at 0.005 µM (DPP1 in HL-60 cells) [%]
CO[C@@H](CN(C)C)C(=O)N[C@H](C#N)Cc1ccc(-c2cc3c(C)nc(C)cn3c2)cc1F [Compound 316] | ≤ 40 | ≤ 76.5
CO[C@@H](CN(C)C)C(=O)N[C@H](C#N)Cc1ccc(-c2ccc3c(c2)C2(CN(C)C2)OC3=O)cc1F [Compound 317] | 40 to 66.7 | ≤ 76.5
CCN1C(=O)Cc2ccc(-c3ccc(C[C@@H](C#N)NC(=O)[C@H](CN(C)C)OC)c(F)c3)cc21 [Compound 318] | 40 to 66.7 | 76.5 to 93.9
CO[C@@H](CN(C)C)C(=O)N[C@H](C#N)Cc1ccc(-c2ccc3c(c2)C2(CCN(C)C2)OC3=O)cc1F (stereo partly drawn) [Compound 319] | ≥ 66.7 | ≤ 76.5
CO[C@@H](CN(C)C)C(=O)N[C@H](C#N)Cc1ccc(-c2ccc3cnn(C4CCN(C)CC4)c3c2)cc1F [Compound 320] | ≥ 66.7 | ≤ 76.5
CO[C@@H](CN(C)C)C(=O)N[C@H](C#N)Cc1ccc(-c2ccc3c(c2)C2(CCN(C4COC4)CC2)OC3)cc1F [Compound 321] | 40 to 66.7 | ≤ 76.5
CO[C@@H](CN(C)C)C(=O)N[C@H](C#N)Cc1ccc(-c2ccc3oc(=O)n(CCN4CCOCC4)c3c2)cc1F [Compound 322] | 40 to 66.7 | ≤ 76.5
CO[C@@H](CN(C)C)C(=O)N[C@H](C#N)Cc1ccc(-c2ccc(CN3CCN(C)CC3)cc2)cc1F [Compound 323] | ≤ 40 | 76.5 to 93.9
CO[C@@H](CN(C)C)C(=O)N[C@H](C#N)Cc1ccc(-c2ccc3oc(=O)n(C)c3c2)cc1F [Compound 324] | 40 to 66.7 | 76.5 to 93.9
CO[C@@H](CN(C)C)C(=O)N[C@H](C#N)Cc1ccc(-c2ccc3c(n2)CCCN3)cc1F [Compound 325] | ≤ 40 | ≤ 76.5
COCCN(C)CCn1c(=O)oc2ccc(-c3ccc(C[C@@H](C#N)NC(=O)[C@H](CN(C)C)OC)c(F)c3)cc21 [Compound 326] | ≥ 66.7 | ≤ 76.5
CO[C@@H](CN(C)C)C(=O)N[C@H](C#N)Cc1ccc(-c2ccc3cnn(C)c3c2)cc1 [Compound 328] | ≤ 40 | ≤ 76.5
CO[C@@H](CN(C)C)C(=O)N[C@H](C#N)Cc1ccc(-c2ccc3nnn(C)c3c2)cc1 [Compound 329] | ≤ 40 | ≤ 76.5
CO[C@@H](CN(C)C)C(=O)N[C@H](C#N)Cc1ccc(-c2cnc3c(n2)CCCC3)cc1 [Compound 330] | ≤ 40 | ≤ 76.5
CO[C@@H](CN(C)C)C(=O)N[C@H](C#N)Cc1ccc(-c2ccc(S(=O)(=O)N3CCC3)cc2)cc1 [Compound 331] | ≤ 40 | ≤ 76.5
CO[C@@H](CN(C)C)C(=O)N[C@H](C#N)Cc1ccc(-c2ccc3cnn(C)c3c2)cc1F [Compound 332] | ≤ 40 | ≤ 76.5
CO[C@@H](CN(C)C)C(=O)N[C@H](C#N)Cc1ccc(-c2ccc3nnn(C)c3c2)cc1F [Compound 333] | 40 to 66.7 | 76.5 to 93.9
CO[C@@H](CN(C)C)C(=O)N[C@H](C#N)Cc1ccc(-c2cnc3c(n2)CCCC3)cc1F [Compound 334] | ≤ 40 | ≤ 76.5

Structure (SMILES) | inhibition at 0.01 µM (human DPP1 enzyme) [%] | inhibition at 0.005 µM (DPP1 in HL-60 cells) [%]
CO[C@@H](CN(C)C)C(=O)N[C@H](C#N)Cc1ccc(-c2ccc(S(=O)(=O)N3CCC3)cc2)cc1F [Compound 335] | ≤ 40 | ≤ 76.5
CO[C@@H](CN(C)C)C(=O)N[C@H](C#N)Cc1cc2c(cc1F)-c1ccc(F)cc1CO2 [Compound 336] | ≤ 40 | ≤ 76.5
CN(C)C[C@H](O)C(=O)N[C@H](C#N)Cc1cc2c(cc1F)-c1ccc(C#N)cc1CO2 [Compound 338] | ≤ 40 | ≤ 76.5
CN(C)C[C@H](O)C(=O)NC(C#N)Cc1cc2c(cc1F)-c1cc3c(cc1CO2)oc(=O)n3C (stereo partly drawn) [Compound 339] | ≤ 40 | ≤ 76.5
CN(C)C[C@H](O)C(=O)NC(C#N)Cc1cc2c(cc1F)-c1ccc3oc(=O)n(C)c3c1CO2 (stereo partly drawn) [Compound 341] | ≤ 40 | ≤ 76.5
CN(C)C[C@H](O)C(=O)N[C@H](C#N)Cc1ccc(-c2ccc3c(c2)C2(CC3)CCN(C)CC2)cc1 [Compound 342] | 40 to 66.7 | ≤ 76.5
CN(C)C[C@H](O)C(=O)N[C@H](C#N)Cc1ccc(-c2ccc3c(c2)C2(CCCN(C)C2)C(=O)N3C)cc1 (stereo partly drawn) [Compound 343] | ≤ 40 | ≤ 76.5
CN(C)CCn1c(=O)oc2ccc(-c3ccc(C[C@@H](C#N)NC(=O)[C@@H](O)CN(C)C)cc3)cc21 [Compound 344] | 40 to 66.7 | ≤ 76.5
Cc1cn2cc(-c3ccc(C[C@@H](C#N)NC(=O)[C@@H](O)CN(C)C)cc3)cc2c(C)n1 [Compound 345] | ≤ 40 | ≤ 76.5
CN(C)C[C@H](O)C(=O)N[C@H](C#N)Cc1ccc(-c2ccc3c(c2)C2(CN(C)C2)OC3=O)cc1 [Compound 346] | 40 to 66.7 | ≤ 76.5
CCN1C(=O)Cc2ccc(-c3ccc(C[C@@H](C#N)NC(=O)[C@@H](O)CN(C)C)cc3)cc21 [Compound 347] | ≤ 40 | ≤ 76.5
CN(C)C[C@H](O)C(=O)N[C@H](C#N)Cc1ccc(-c2ccc3c(c2)C2(CCN(C)C2)OC3=O)cc1 (stereo partly drawn) [Compound 348] | 40 to 66.7 | ≤ 76.5
CN(C)C[C@H](O)C(=O)N[C@H](C#N)Cc1ccc(-c2ccc3cnn(C4CCN(C)CC4)c3c2)cc1 [Compound 349] | 40 to 66.7 | ≤ 76.5
CN(C)C[C@H](O)C(=O)N[C@H](C#N)Cc1ccc(-c2ccc3c(c2)C2(CCN(C4COC4)CC2)OC3)cc1 [Compound 350] | ≤ 40 | ≤ 76.5
CN(C)C[C@H](O)C(=O)N[C@H](C#N)Cc1ccc(-c2ccc3oc(=O)n(CCN4CCOCC4)c3c2)cc1 [Compound 351] | ≤ 40 | ≤ 76.5
CN(C)C[C@H](O)C(=O)N[C@H](C#N)Cc1ccc(-c2ccc(CN3CCN(C)CC3)cc2)cc1 [Compound 352] | ≤ 40 | ≤ 76.5
CN(C)C[C@H](O)C(=O)N[C@H](C#N)Cc1ccc(-c2ccc3oc(=O)n(C)c3c2)cc1 [Compound 353] | 40 to 66.7 | 76.5 to 93.9
CN(C)C[C@H](O)C(=O)N[C@H](C#N)Cc1ccc(-c2ccc3c(n2)CCCN3)cc1 [Compound 354] | ≤ 40 | ≤ 76.5
